In brackets after ≈: the same amount, converted by molar mass.
How the values were obtained:
[1] = system: PBMC; assay: Immunosuppressive activity in human PBMC assessed as inhibition of PHA/PMA-induced IL-2 production after 18 hrs by ELISA; assay type: functional, cell-based
[2] = system: Blood; assay: Inhibition of ROS production in human whole blood after 30 mins by luminol-based chemiluminescence assay; assay type: functional, tissue-based; settings: 0.5 h
[3] = system: PBMC; assay: Immunosuppressive activity in human PBMC assessed as inhibition of PHA-induced T cell proliferation after 72 hrs by [3H]thymidine incorporation assay; assay type: functional, cell-based
[4] = system: CC-1; assay: Cytotoxicity against rat CC1 after 48 hrs by MTT assay; assay type: cell-based; settings: CC-1, 48 h
[5] = system: 3T3-L1; assay: Cytotoxicity against mouse 3T3L1 after 48 hrs by MTT assay; assay type: cell-based; settings: 3T3-L1, 48 h
[6] = biological target: T1, Interleukin-2 receptor subunit alpha (Homo sapiens, UniProt P01589); assay: Competitive inhibition of IL2 receptor alpha (unknown origin)
T1 sequence (P01589 whole entry): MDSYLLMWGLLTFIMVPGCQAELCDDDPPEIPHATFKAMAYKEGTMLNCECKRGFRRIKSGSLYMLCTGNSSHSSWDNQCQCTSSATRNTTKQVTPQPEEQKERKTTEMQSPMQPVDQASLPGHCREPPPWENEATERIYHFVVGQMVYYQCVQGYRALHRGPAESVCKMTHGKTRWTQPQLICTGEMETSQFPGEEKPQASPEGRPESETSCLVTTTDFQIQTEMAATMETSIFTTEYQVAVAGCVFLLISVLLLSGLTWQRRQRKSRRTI

SMILES	IC50 [1] [µg/mL]	IC50 [2] [µg/mL]	IC50 [3] [µg/mL]	IC50 [4] [µg/mL]	IC50 [5] [µg/mL]	IC50 [6] [µM]
CC1CC(=O)Nc2cc(N)ccc2N1 (configuration not stated)	13 (≈ 68 µM)	4.5 (≈ 23.5 µM)	4.4 (≈ 23 µM)			
CC1(C)CC(=O)Nc2cc([N+](=O)[O-])ccc2N1		12.4 (≈ 52.7 µM)				
CC1C/C(=N\NC(=O)Nc2ccccc2)Nc2cc([N+](=O)[O-])ccc2N1 (configuration not stated)			25.5 (≈ 72 µM)			
Nc1ccc(C(=O)/C=C/c2cccc(Cl)c2)cc1	2.5 (≈ 9.7 µM)	24.4 (≈ 94.7 µM)	< 0.5	16.7 (≈ 64.8 µM)	9.5 (≈ 36.9 µM)	
Cc1ccc(/C=C/C(=O)c2ccc(N)cc2)cc1	15.1 (≈ 63.6 µM)	12.4 (≈ 52.3 µM)	3.2 (≈ 13.5 µM)			
O=C(/C=C/c1ccccc1)c1cccc(O)c1	14.2 (≈ 63.3 µM)	4.8 (≈ 21.4 µM)	8.2 (≈ 36.6 µM)			
Cc1ccc(/C=C/C(=O)c2ccccc2)cc1	15.6 (≈ 70.2 µM)	31 (≈ 139 µM)	7.8 (≈ 35.1 µM)			
COC(=O)[C@H](Cc1ccc(C#Cc2ccccc2)cc1)NC(=O)C[C@H]1CCCN(C(=N)N)C1						6
O=C(/C=C/c1ccccc1)c1ccccc1O [2'-HYDROXYCHALCONE]	19.7 (≈ 87.8 µM)		11 (≈ 49.1 µM)			

— ChEMBL document CHEMBL3046838, “In vitro and in silico exploration of IL-2 inhibition by small drug-like molecules” (Med Chem Res, 2013)
